Assay results taken from patent publication US20240316022A1 (TYRA BIOSCIENCES, INC., priority 2021, published 2024).

What was measured:
Assay in all cases: Kinase binding assay (kinase-tagged T7 phage, qPCR), Kd
FGFR4 = target: T1, FGFR4 (Homo sapiens, UniProt P22455); settings: read-out: FGFR4 (Kd nM)
T1 construct: made in house; host or cells: E. coli derived from BL21, infected with T7 phage

FGFR3 = target: T2, FGFR3 (Homo sapiens, UniProt P22607); settings: read-out: FGFR3 (Kd nM)
T2 construct: made in house; host or cells: E. coli derived from BL21, infected with T7 phage
T2 sequence (P22607 23-806): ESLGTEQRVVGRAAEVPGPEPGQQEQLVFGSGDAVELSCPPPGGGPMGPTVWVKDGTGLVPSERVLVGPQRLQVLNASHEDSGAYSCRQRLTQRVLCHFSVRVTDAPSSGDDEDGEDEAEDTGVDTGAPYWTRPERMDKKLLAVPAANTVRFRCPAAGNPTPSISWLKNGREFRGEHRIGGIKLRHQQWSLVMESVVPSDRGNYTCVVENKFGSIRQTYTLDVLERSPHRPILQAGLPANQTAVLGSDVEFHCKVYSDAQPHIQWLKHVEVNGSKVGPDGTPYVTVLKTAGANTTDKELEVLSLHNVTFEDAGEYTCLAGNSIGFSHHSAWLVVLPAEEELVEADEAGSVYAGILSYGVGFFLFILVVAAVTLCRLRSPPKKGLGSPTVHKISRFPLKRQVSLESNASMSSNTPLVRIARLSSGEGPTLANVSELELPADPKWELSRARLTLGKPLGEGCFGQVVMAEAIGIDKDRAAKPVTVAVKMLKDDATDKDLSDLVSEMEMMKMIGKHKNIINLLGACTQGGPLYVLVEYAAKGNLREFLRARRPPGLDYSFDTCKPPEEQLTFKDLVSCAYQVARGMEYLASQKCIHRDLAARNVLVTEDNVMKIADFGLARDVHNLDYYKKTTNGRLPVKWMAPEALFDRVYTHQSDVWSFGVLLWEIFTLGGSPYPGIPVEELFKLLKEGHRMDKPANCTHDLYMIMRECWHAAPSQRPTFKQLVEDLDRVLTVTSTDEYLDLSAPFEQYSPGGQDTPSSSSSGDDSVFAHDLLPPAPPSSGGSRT

FGFR2 = target: T3, FGFR2 (Homo sapiens, UniProt P21802); settings: read-out: FGFR2 (Kd nM)
T3 construct: made in house; host or cells: E. coli derived from BL21, infected with T7 phage
T3 sequence (P21802 22-821): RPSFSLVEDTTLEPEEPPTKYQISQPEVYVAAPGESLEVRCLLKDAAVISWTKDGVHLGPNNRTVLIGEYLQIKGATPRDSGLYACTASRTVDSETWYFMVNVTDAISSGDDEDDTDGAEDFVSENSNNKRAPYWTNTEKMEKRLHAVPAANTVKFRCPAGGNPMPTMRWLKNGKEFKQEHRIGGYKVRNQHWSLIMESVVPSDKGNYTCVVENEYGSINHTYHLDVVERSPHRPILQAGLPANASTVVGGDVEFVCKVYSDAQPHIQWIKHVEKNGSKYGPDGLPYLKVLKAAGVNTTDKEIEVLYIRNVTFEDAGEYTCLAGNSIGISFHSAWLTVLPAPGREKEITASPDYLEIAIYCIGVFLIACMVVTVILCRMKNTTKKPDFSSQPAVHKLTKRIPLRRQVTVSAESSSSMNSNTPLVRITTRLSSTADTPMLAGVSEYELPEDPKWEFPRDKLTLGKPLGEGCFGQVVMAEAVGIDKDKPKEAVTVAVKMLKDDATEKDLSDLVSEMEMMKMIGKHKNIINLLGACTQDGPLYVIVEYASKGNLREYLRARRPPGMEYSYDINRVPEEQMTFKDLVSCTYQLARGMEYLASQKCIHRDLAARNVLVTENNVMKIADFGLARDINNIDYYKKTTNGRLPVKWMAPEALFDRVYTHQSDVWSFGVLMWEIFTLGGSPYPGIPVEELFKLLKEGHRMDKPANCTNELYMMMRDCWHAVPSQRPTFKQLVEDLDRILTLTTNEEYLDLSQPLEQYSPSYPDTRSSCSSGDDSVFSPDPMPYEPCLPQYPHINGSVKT

FGFR1 = target: T4, FGFR1 (Homo sapiens, UniProt P11362); settings: read-out: FGFR1 (Kd nM)
T4 construct: made in house; host or cells: E. coli derived from BL21, infected with T7 phage
T4 sequence (P11362 22-822): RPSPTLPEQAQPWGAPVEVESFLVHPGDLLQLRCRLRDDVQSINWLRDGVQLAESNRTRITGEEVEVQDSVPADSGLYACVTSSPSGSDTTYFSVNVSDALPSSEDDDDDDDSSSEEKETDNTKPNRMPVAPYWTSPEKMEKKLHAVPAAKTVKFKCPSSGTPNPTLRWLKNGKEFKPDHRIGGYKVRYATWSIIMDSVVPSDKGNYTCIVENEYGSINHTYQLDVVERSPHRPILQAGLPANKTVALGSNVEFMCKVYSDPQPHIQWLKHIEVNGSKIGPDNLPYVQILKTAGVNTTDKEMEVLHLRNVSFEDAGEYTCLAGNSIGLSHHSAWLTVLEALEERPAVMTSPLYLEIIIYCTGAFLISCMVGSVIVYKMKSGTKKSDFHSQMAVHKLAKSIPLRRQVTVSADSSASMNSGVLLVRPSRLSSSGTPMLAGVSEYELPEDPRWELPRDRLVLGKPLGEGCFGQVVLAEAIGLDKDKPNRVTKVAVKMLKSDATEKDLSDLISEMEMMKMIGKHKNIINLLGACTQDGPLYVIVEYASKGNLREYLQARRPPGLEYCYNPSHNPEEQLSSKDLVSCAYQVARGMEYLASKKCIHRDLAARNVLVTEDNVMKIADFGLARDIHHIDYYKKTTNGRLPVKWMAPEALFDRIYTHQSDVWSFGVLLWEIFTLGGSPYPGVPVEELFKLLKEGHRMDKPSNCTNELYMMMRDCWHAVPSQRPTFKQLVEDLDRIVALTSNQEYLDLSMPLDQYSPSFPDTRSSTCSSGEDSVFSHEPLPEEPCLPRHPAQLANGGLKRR

T1 sequence (P22455 22-802): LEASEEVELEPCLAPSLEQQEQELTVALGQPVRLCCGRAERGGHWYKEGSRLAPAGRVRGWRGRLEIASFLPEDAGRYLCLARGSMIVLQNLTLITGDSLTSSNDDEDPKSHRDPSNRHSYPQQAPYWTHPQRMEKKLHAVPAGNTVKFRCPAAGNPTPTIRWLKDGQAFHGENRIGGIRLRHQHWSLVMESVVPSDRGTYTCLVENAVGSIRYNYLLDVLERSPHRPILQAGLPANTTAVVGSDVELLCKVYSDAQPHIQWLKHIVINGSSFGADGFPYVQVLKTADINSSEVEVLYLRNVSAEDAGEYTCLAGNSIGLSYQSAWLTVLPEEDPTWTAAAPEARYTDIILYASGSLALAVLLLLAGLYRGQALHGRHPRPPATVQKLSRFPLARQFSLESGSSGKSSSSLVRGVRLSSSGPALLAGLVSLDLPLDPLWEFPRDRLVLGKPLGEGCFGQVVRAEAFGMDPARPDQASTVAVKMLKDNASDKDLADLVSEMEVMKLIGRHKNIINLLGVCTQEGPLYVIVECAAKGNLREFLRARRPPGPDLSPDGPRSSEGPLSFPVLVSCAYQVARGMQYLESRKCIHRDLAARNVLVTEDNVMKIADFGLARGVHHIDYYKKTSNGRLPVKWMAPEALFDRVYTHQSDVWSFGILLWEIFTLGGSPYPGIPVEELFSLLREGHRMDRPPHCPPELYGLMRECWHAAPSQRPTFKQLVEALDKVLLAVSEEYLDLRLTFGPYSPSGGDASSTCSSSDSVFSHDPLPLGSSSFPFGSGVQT

Row | Compound | Kd (FGFR4) [nM] | Kd (FGFR3) [nM] | Kd (FGFR2) [nM] | Kd (FGFR1) [nM]
1 | COc1cc2[nH]nc(-c3cnc4c(c3)NCCO4)c2cc1O[C@H](C)c1c(Cl)cncc1Cl [Example 146] | 0.1 to 100 | 0.1 to 100 | 0.1 to 100 | 0.1 to 100
2 | Cc1cnnc(C)c1[C@H](C)Oc1ccc2[nH]nc(-c3cc(C#N)cc(N4CCOCC4)c3)c2c1 [Example 65, 3-[5-[(1S)-1-(3,5-Dimethylpyridazin-4-yl)ethoxy]-1H-indazol-3-yl]-5-morpholino-benzonitrile] | > 1000 | > 1000 | > 1000 | > 1000
3 | COc1cc(OC)cc(-c2n[nH]c3ccc(O[C@H](C)c4c(C)cnnc4C)cc23)c1 [Example 54, 3-(3,5-dimethoxyphenyl)-5-[(1R)-1-(3,5-dimethylpyridazin-4-yl)ethoxy]-1H-indazole] | 0.1 to 100 | 0.1 to 100 | 250 to 1000 | 250 to 1000
4 | C[C@@H](Oc1ccc2[nH]nc(-c3cnc(O[C@H]4CCOC4)c(C#N)c3)c2c1)c1c(Cl)cncc1Cl [Example 133, 5-(5-((R)-1-(3,5-dichloropyridin-4-yl)ethoxy)-1H-indazol-3-yl)-2-(((S)-tetrahydrofuran-3-yl)oxy)nicotinonitrile] | 0.1 to 100 | 0.1 to 100 | 0.1 to 100 | 100 to 250
5 | C[C@@H](Oc1ccc2[nH]nc(-c3ccc(C(N)=O)nc3)c2c1)c1c(Cl)cncc1Cl [Example 12, 5-[5-[(1R)-1-(3,5-dichloro-4-pyridyl)ethoxy]-1H-indazol-3-yl]pyridine-2-carboxamide] | 0.1 to 100 | 0.1 to 100 | 0.1 to 100 | 0.1 to 100
6 | COc1c(C#N)cc(-c2n[nH]c3ccc(O[C@H](C)c4c(C)cnnc4C)cc23)cc1C#N [Example 85, 5-[5-[(1R)-1-(3,5-dimethylpyridazin-4-yl)ethoxy]-1H-indazol-3-yl]-2-methoxy-benzene-1,3-dicarbonitrile] | 0.1 to 100 | 250 to 1000 | > 1000 | > 1000
7 | COc1cc(-c2n[nH]c3ccc(O[C@H](C)c4c(C)cnnc4C)cc23)cc(C#N)n1 [Example 100, (R)-4-(5-(1-(3,5-dimethylpyridazin-4-yl)ethoxy)-1H-indazol-3-yl)-6-methoxypicolinonitrile] | 0.1 to 100 | 100 to 250 | 250 to 1000 | 250 to 1000
8 | Cc1cnnc(C)c1[C@@H](C)Oc1ccc2[nH]nc(-c3cc(C#N)cc(C4CCOC4)c3)c2c1 (stereo partly drawn) [Example 90, 3-(5-((R)-1-(3,5-dimethylpyridazin-4-yl)ethoxy)-1H-indazol-3-yl)-5-(tetrahydrofuran-3-yl)benzonitrile] | 0.1 to 100 | 0.1 to 100 | 0.1 to 100 | 250 to 1000
9 | C[C@@H](Oc1ccc2[nH]nc(-c3cc(C#N)cc(C4CC4)c3)c2c1)c1c(Cl)cncc1Cl [Example 109, (R)-3-cyclopropyl-5-(5-(1-(3,5-dichloropyridin-4-yl)ethoxy)-1H-indazol-3-yl)benzonitrile] | 0.1 to 100 | 250 to 1000 | > 1000 | > 1000
10 | CCOc1cc(C#N)cc(-c2n[nH]c3ccc(O[C@H](C)c4c(C)cnnc4C)cc23)c1 [Example 56, 3-[5-[(1R)-1-(3,5-dimethylpyridazin-4-yl)ethoxy]-1H-indazol-3-yl]-5-ethoxy-benzonitrile] | 0.1 to 100 | 100 to 250 | 250 to 1000 | 250 to 1000
11 | CCS(=O)(=O)N1CCOc2ncc(-c3n[nH]c4ccc(O[C@H](C)c5c(Cl)cncc5Cl)cc34)cc21 [Example 144] | 0.1 to 100 | > 1000 | > 1000 | > 1000
12 | CCN1CCC2(CCc3cc(-c4n[nH]c5ccc(O[C@H](C)c6c(Cl)cncc6Cl)cc45)ccc3O2)CC1 [Example 121, 6-[5-[(1R)-1-(3,5-dichloro-4-pyridyl)ethoxy]-1H-indazol-3-yl]-1′-ethylspiro[chromane-2,4′-piperidine]] | 0.1 to 100 | 0.1 to 100 | 0.1 to 100 | 0.1 to 100
13 | COc1ncc(-c2n[nH]c3ccc(O[C@H](C)c4c(Cl)cncc4Cl)cc23)cc1NCc1ccnc(C)c1 [Example 6, (R)-5-(5-(1-(3,5-Dichloropyridin-4-yl)ethoxy)-1H-indazol-3-yl)-2-methoxy-N-((2-methylpyridin-4-yl)methyl)pyridin-3-amine] | 250 to 1000 | > 1000 | > 1000 | > 1000
14 | CCOCCOc1cc(C#N)cc(-c2n[nH]c3ccc(O[C@H](C)c4c(C)cnnc4C)cc23)c1 [Example 73, 3-[5-[(1R)-1-(3,5-dimethylpyridazin-4-yl)ethoxy]-1H-indazol-3-yl]-5-(2-ethoxyethoxy)-benzonitrile] | 0.1 to 100 | 100 to 250 | 250 to 1000 | > 1000
